Where a name gives a salt, the structure may show the parent alone.
Tests used:
[1] = test system: APP mutant transgenic mice; test: Hippocampal histology after Morris water maze (cresyl violet, tau immunohistochemistry, Golgi staining); format: in vivo, mouse
Experimental: After the Morris water maze task the animals were deeply anesthetized, and transcardialy perfused with 10 ml 4° C. phosphate-buffered saline solution (PBS), followed by 30 ml of 4° C. paraformaldehyde solution (4% in phosphate buffer, pH 7.4). The brains were removed and postfixed for 24 h in the same fixative (4° C.) and subsequently cryoprotected in 30% sucrose solution for 72 h (4° C.). Brains were cut on a cryostat in 30 μm hippocampal coronal sections, and the slices were collected and stored at 4° C. in PBS for free floating immunohistochemistry.
Cresyl violet staining (Nissl staining) is used for neuronal tissue; the stain binds to the acidic components of the neuronal cytoplasm, showing the number of functioning neurons. Slides were stained into the filtered 1% crezyl violet solution for 5 min. and were dehydrated in 50% 70%, 95%, 2×100% ethanol for 1 minute each. After that slides were placed in xylene for another 10 minutes, and coversliped.
Neurofibrillary tangles (NTFs) are intraneuronal aggregates; these are abnormal accumulations associated with neurodegenerative diseases. To visualize the presence of these structures, we used for immunostaining human PHF-tau MAb(clone AT100) primer antibody at 1:800 dilution in PBS (pH 7.4).
The methodological steps in all three immunohistological techniques were the same. After quenching of endogenous peroxidase activity and a blocking step, the sections were incubated overnight at 4° C. with the primary antibody in the presence of 20% goat serum and Triton X-100 0.2%. On the following day, the sections were washed in PBS and incubated for 1 h at room temperature with the secondary biotinylated goat anti-mouse antibody (Vector Laboratories, Burlingame, Calif., USA, 1:400). […]
Dendritic spines change their density after a CNS injury, to visualize this effect, we made Golgi staining. […] The slides were analyzed with confocal light microscopy, we counted dendritic spines 100 μm tong on hippocampal pyramidal cells, and start point was 100 μm farther from the stoma. […]

[2] = test system: B6SJL-Tg(SOD1*G93A)1Gur/J mice; test: Lifespan of G93A ALS mouse strain; format: in vivo
Description: Amyotrophic lateral sclerosis (ALS) is a fatal neurodegenerative disease, caused by the death of motor neurons mainly in the spinal cord. The main form of familiar (genetic or inherited) ALS is caused by the mutation of superoxide dismutase 1 (SOD1) gene, which results in […] amyloid-like aggregations and progressive neuronal degenerations. […] The “golden standard” of preclinical ALS drug tests is the use of a specific transgenic mouse strain, which harbors high-copy number of human mutated SOD1 gene, having a mutation of G93A.
The effect of Ex. 23 was investigated on lifespan of G93A ALS mouse strain. A total of 33 transgenic female mice (B6SJL-Tg(SOD1*G93A)1Gur/J) were bred from 4 breeding pairs. The breeding pairs were purchased from the Jackson Laboratory (jax.org). The mice were individually housed in an IVC rack. Standard food pellets and water was available ad libidum. Body weight was monitored daily. The compound Ex. 23 was freshly dissolved in saline every day, and was administered daily intraperitoneally at the onset of symptoms in 10 mg/bwkg. Symptom onset was determined according to ALS-TDI neurological score. Mice treated with Ex. 23 lived longer (FIG. 10) than untreated mice (mean survival 143±3 days; n=8 and 132±3 days; n=25, respectively).

SKH-1 hairless mice = test: UVB induced skin edema in SKH-1 hairless mice; format: in vivo, mouse
Experimental: To evaluate the effects of systemic administration of Ex. 23 on UVB induced edema 16 SKH-1 hairless mice were divided into two groups of 8 animals each. Group 1 mice (Control) were exposed to 230 mJ/cm^2 UVB consecutively for 2 days (a total cumulative UVB dose of 460 mJ/cm^2), which evoked edema as described by Athar et al. (Tox. Appl. Pharmacol. 195: 370-378, 2004). Group 2 mice received Ex 23. (10 mg/kg) intraperitoneally 30 min before the first UV treatment. The administration of the compound Ex. 23 was repeated 24 and 48 hours later. UVB-induced skin edema was monitored by measuring the increase in dorsal skin thickness using an ultrasound skin scanner (22 MHz).

[3] = model in which efficacy was shown

## COC(=O)C1=C(CCN(C)C)N(C)C(CCN(C)C)=C(C(=O)OC)C1c1ccc(C(F)(F)F)cc1 [Example 23, Dimethyl 4-(4-trifuoromethylphenyl)-2,6-bis-(2-dimethylaminoethyl)-1-methyl-1,4-dihydropyridine-3,5-dicarboxylate dihydrochloride]
[1]; hippocampal pyramidal cells
  Golgi staining, dendritic spine density: the spine density was the highest in the APP mutant compound of Ex. 23 treated group
[1]; hippocampus, APP mutant mice
  tau-immunohistochemistry: could inhibit the taupathology
[1]; hippocampus, versus negative control group
  cresyl-violet staining, alive neurons: more alive neurons
[2]; 10 mg/bwkg daily i.p. from onset of symptoms, n=8, FIG. 10
  mean survival: 143 ± 3 days
[2]; [3]
  In vivo efficacy: ALS
SKH-1 hairless mice; 10 mg/kg i.p. 30 min before first UV, repeated 24 and 48 hours later, FIG. 7
  UVB induced skin edema (increase in skin thickness): substantially protected against edema formation
SKH-1 hairless mice; [3]
  In vivo efficacy: UVB protection

Source: US10660789B2, “1,4-dihydropyridine derivatives with HSP modulating activity” (Richter Gedeon NYRT., priority 2011, dated 2020)
